Residues, ends and D or L forms follow the SMILES beside them.
Experiments:
[1] = system: HeLa S3 cells; assay: Protective effect of peptides on apoptosis and necrosis in the presence of camptothecin (Annexin-V FITC / PI flow cytofluorimetry); format: cell-based, human; settings: HeLa cell culture, 24 hours
Excerpt: (§1) The experiments to study the effect of peptides on apoptosis and necrosis involved the use of reagents in the ApoTarget Annexin-V FITC Apoptosis Kit (Invitrogen, CIIIA). In addition to Annexin-V, marked by the FITC fluorescent stain, the ApoTarget Annexin-V FITC Apoptosis Kit contains propidium iodide (PI), a dye. PI can permeate only those cells whose cytoplasmic membrane is damaged, which is a characteristic sign of an advanced stage of apoptosis or necrosis. Having permeated cells with damaged cell membrane, PI binds itself to the DNA. The «red» fluorescence of resulting complexes is identified with a flow cytofluorimeter.
(§2) Therefore, the procedure of double staining (Annexin-V FITC plus PI) and the process of flow cytofluorimetry can be used to distinguish 3 cell populations and determine their percentage relationship: 1) non-apoptotic cells (Annexin-V-negative and PI-negative), 2) cells at an early stage of apoptosis (Annexin-V-positive and PI-negative), 3) necrotic cells or cells at an advanced stage of apoptosis (Annexin-V- positive and PI- positive). An increase in the percentage of apoptotic and necrotic cells can serve as a measure of how the compounds added to the culture medium act on these processes. Camptothecin (Camptothecin, Sigma, CIIIA), which is recommended by the manufacturer, was used as control in the experiments because of its pronounced ability to induce apoptosis and necrosis of cells, especially tumor ones.
(§3) Peptide solutions in sterile PBS with concentrations of 1 mg/ml were prepared immediately before the experiments to study the peptides' effect on apoptosis and necrosis. The same solutions that were stored in sterile test tubes at +4°C were used to study the proliferation activity. Working dilutions of peptides in the cell cultivation medium were prepared on the day of each experiment. A sterile plastic 96-well plate (Corning, USA) was used for this purpose. The dilutions were prepared so that the introduction of 25 µl of each working dilution in an experimental well with cultivated cells would result in final concentrations of peptides equal to 400, 200, 100 and 50 ng/ml.
(§4) The HeLa S3 and NIH 3T3 cells were cultivated with the use of reagents manufactured by Invitrogen (USA) and plastic vials, plates, pipettes and filters of Corning (USA). The cells were cultivated in DMEM, prepared with a dry concentrate dissolved in pyrogen-free distilled water (Millipore, USA). The medium contained 10 % FBS, 2 mM of glutamine and penicillin-streptomycin (diluted according to the vendor's recommendations). HeLa S3 and NIH 3T3 were grown in vials T150 at +37 °C in the atmosphere of 5.6 % CO2. The cells were constantly maintained in the logarithmic growth phase, to this end they were passed at least 2 times a week, with trypsin used to remove cells from the walls of the culture vials. Live cells were counted in a hemacytometer after staining the suspension aliquot with trypan blue.
(§5) The HeLa S3 and NIH 3T3 cells were removed from the surface of the culture vials and counted; the concentration was moved to 10^5 cell/ml, and the resulting suspensions were put in doses of 1 ml in the wells of a 24-well plate.
(§6) Having made sure on the following day that the cells adhered to the plate's surface, the culture medium was replaced with a fresh one in each well.
(§7) Camptothecin was added in the control wells (positive control - stimulation of apoptosis and necrosis) to the final concentration of 50 µM that had been determined in preliminary experiments with the NIH 3T3 and HeLa S3 cells. 25 µl of fresh culture medium were added in the control wells (negative control), 25 µl of working peptide dilutions were added in each experimental well (each working dilution - twice), as well as camptothecin in the same final concentration. Incubation was conducted at +37 °C. […]

[2] = system: NIH 3T3 cells; assay: as above; format: cell-based, mice; settings: NIH3T3 cell culture, 24 hours
Excerpt: as §1, §2, §3, §4, §5, §6, §7

[3] = Stability of peptides in storage in solution (HPLC analysis); settings: 0.05 M ammonium acetate buffer, approx. 1 mg/ml
Protocol: The peptides were dissolved in 0.05 M of an ammonium acetate buffer with pH 4.5 and pH 7.5 so that their concentrations achieved approximately 1 mg/ml. The solutions were sterilely filtered and kept in sterile, well-sealed vials. Upon expiration of the storage period the substances were analyzed with HPLC.

[4] = target: T1, Annexin-V (Homo sapiens, UniProt P08758); settings: calcium-dependent phospholipid binding; cited from earlier work
T1 sequence (P08758 1-320): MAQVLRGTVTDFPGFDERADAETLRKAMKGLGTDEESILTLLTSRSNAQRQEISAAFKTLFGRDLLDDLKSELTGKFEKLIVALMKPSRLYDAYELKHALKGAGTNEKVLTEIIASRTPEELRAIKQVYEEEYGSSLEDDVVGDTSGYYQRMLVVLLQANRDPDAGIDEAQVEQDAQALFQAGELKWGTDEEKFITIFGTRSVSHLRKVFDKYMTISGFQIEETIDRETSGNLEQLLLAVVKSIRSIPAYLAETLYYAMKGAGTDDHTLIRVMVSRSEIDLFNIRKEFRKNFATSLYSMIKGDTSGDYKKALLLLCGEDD

[5] = peptide 50 ng/ml + camptothecin 50 µM
[6] = peptide 100 ng/ml + camptothecin 50 µM
[7] = peptide 200 ng/ml + camptothecin 50 µM
[8] = peptide 400 ng/ml + camptothecin 50 µM

| Molecule | Apoptosis [1, 5] [%] | Necrosis [1, 5] [%] | Apoptosis [1, 6] [%] | Necrosis [1, 6] [%] | Apoptosis [1, 7] [%] | Necrosis [1, 7] [%] | Apoptosis [1, 8] [%] | Necrosis [1, 8] [%] | Apoptosis [2, 5] [%] | Necrosis [2, 5] [%] | Apoptosis [2, 6] [%] | Necrosis [2, 6] [%] | Apoptosis [2, 7] [%] | Necrosis [2, 7] [%] | Apoptosis [2, 8] [%] | Necrosis [2, 8] [%] | Peptide stability in storage ([3]; 1hour, pH 4.5, 22°C) | Peptide stability in storage ([3]; 1hour, pH 7.5, 22°C) | Peptide stability in storage ([3]; 10 days, pH 4.5, 22°C) | Peptide stability in storage ([3]; 10 days, pH 7.5, 22°C) | other results |
| --- | --- | --- | --- | --- | --- | --- | --- | --- | --- | --- | --- | --- | --- | --- | --- | --- | --- | --- | --- | --- | --- |
| C[C@H](N)C(=O)N[C@@H](CC(=O)O)C(=O)N[C@@H](CCC(=O)O)C(=O)N[C@@H](CCCNC(=N)N)C(=O)O [ADER, H-Ala-Asp-Glu-Arg-OH] (H-ADER-OH) | 2 | 5.2 | 2.1 | 4.1 | 1.5 | 4 | 2.3 | 4 | 3 | 4 | 2.2 | 3.1 | 2.5 | 3.5 | 4.1 | 5 | 98.1 | 98.1 | 98.0 | 98.0 | Peptide stability in storage ([3]; 30 days, pH 4.5, 22°C): 97.9; Peptide stability in storage ([3]; 30 days, pH 7.5, 22°C): 97.7; Peptide stability in storage ([3]; 60 days, pH 4.5, 22°C): 98.0; Peptide stability in storage ([3]; 60 days, pH 7.5, 22°C): 97.7; Peptide stability in storage ([3]; 90 days, pH 4.5, 22°C): 97.8; Peptide stability in storage ([3]; 90 days, pH 7.5, 22°C): 97.6 |
| CC(=O)N[C@@H](CC(=O)O)C(=O)N[C@@H](CCC(=O)O)C(=O)O [AcDE, Ac-Asp-Glu-OH] (Ac-Asp-Glu-OH) | 21 | 13 | 17 | 11 | 15 | 8 | 22 | 7 | 35 | 50 | 30 | 46 | 22 | 34 | 19 | 28 |  |  |  |  |  |
| CCNC(=O)[C@H](CCC(=O)O)NC(=O)[C@@H](N)CC(=O)O [DENHEt, H-Asp-Glu-NH-CH2-CH3] (HELM PEPTIDE1{D.E.[CCN[*:1]]}$$$$V2.0) | 15 | 20 | 9 | 18 | 8 | 13 | 8 | 16 | 25 | 13 | 23 | 12 | 21 | 11 | 18 | 7 | 98.1 | 98.2 | 98.3 | 98.2 | Peptide stability in storage ([3]; 30 days, pH 4.5, 22°C): 98.15; Peptide stability in storage ([3]; 30 days, pH 7.5, 22°C): 98.10; Peptide stability in storage ([3]; 60 days, pH 4.5, 22°C): 98.0; Peptide stability in storage ([3]; 60 days, pH 7.5, 22°C): 98.0; Peptide stability in storage ([3]; 90 days, pH 4.5, 22°C): 97.9; Peptide stability in storage ([3]; 90 days, pH 7.5, 22°C): 97.85 |
| COC(=O)[C@H](CCC(=O)O)NC(=O)[C@@H](N)CC(=O)O [DEOMe, H-Asp-Glu-OCH3] (HELM PEPTIDE1{D.E.[CO[*:1]]}$$$$V2.0) | 4 | 5 | 2.1 | 4.5 | 2.3 | 4.5 | 2.5 | 5.5 | 4 | 6 | 2.5 | 4 | 3 | 5 | 3.3 | 6 | 98.0 | 98.0 | 98.1 | 98.0 | Peptide stability in storage ([3]; 30 days, pH 4.5, 22°C): 97.7; Peptide stability in storage ([3]; 30 days, pH 7.5, 22°C): 97.65; Peptide stability in storage ([3]; 60 days, pH 4.5, 22°C): 97.55; Peptide stability in storage ([3]; 60 days, pH 7.5, 22°C): 97.5; Peptide stability in storage ([3]; 90 days, pH 4.5, 22°C): 97.5; Peptide stability in storage ([3]; 90 days, pH 7.5, 22°C): 97.2 |
| H-Leu-Asp-Glu-OH [LDE] | 1 | 2.5 | 1.4 | 3.1 | 0.5 | 2.2 | 1 | 2.1 | 2 | 3.7 | 2.5 | 3.8 | 1.6 | 3.5 | 2.5 | 3.4 | 96.5 | 96.5 | 96.4 | 96.4 | Peptide stability in storage ([3]; 30 days, pH 4.5, 22°C): 96.4; Peptide stability in storage ([3]; 30 days, pH 7.5, 22°C): 96.4; Peptide stability in storage ([3]; 60 days, pH 4.5, 22°C): 96.2; Peptide stability in storage ([3]; 60 days, pH 7.5, 22°C): 96.2; Peptide stability in storage ([3]; 90 days, pH 4.5, 22°C): 96.2; Peptide stability in storage ([3]; 90 days, pH 7.5, 22°C): 95.6 |
| H-Val-Asp-Glu-OH [VDE] | 2.2 | 3.1 | 3.1 | 3.6 | 3.5 | 4 | 2 | 2.4 | 3.5 | 5 | 1.8 | 2 | 2.2 | 3 | 3 | 4 | 98.1 | 98.1 | 98.0 | 97.7 | Peptide stability in storage ([3]; 30 days, pH 4.5, 22°C): 97.6; Peptide stability in storage ([3]; 30 days, pH 7.5, 22°C): 97.6; Peptide stability in storage ([3]; 60 days, pH 4.5, 22°C): 97.55; Peptide stability in storage ([3]; 60 days, pH 7.5, 22°C): 97.55; Peptide stability in storage ([3]; 90 days, pH 4.5, 22°C): 97.55; Peptide stability in storage ([3]; 90 days, pH 7.5, 22°C): 97.2 |
| phosphatidylcholine |  |  |  |  |  |  |  |  |  |  |  |  |  |  |  |  |  |  |  |  | Kd [4]: 0.5 nM |

Source: EP2963052A2, “PEPTIDES WITH CYTOPROTECTIVE ACTIVITY” (Zamerton Holdings Limited, priority 2013, dated 2016)
